Experimental data taken from US20080254017A1, “Methods and compositions for treating symptomes of diseases related to imbalance of essential fatty acids” (priority 2006, published 2008).
Read-outs that look alike come from different tables or passages of the source.

How the values were obtained:
[1] = tested on: subjects with autistic spectrum disorder; type: in vivo
Source text: The systemic nature of Autistic Spectrum Disorder (ASD) and the pervasive developmental delay (PDD) that may accompany it has led the inventor of the invention to view the complexity of these presentations by addressing them from a cell membrane perspective. Autistic spectrum disorder is a complex neurodevelopmental disorder, which has been investigated under an open clinical study rather than randomized, placebo, controlled and double blinded studies due to the constellation of symptoms in autistic spectrum disorder and multiple variables in regard to the oral and IV intervention. Each subject served as his or her own control for several reasons, 1) control pediatric subjects are difficult to obtain due to the use of intravenous therapy, 2) compliance in regard to a restricted carbohydrate diet and oral intake of supplements is limited in controls, and 3) matching two subjects with the same diagnosis, gender, age, development, metabolism and presentation is unrealistic in regard to autism and PDD. Presently there are no biological markers that exist to identify autistic spectrum disorder in addition to speculation that multiple, variable susceptibility genes, epigenetic effects, and environmental factors complicate the disorder we term autism.
The case studies represented below present the result of the treatment regimen on 300 subjects studied. Phospholipid re-modeling of these subjects were stimulated by supplying oral or IV phospholipids, principally PC, as well as balanced essential fatty acids and catalysts via nutritional and phamaneutical interventions.
A butterfly catheter with a 23-gauge needle was inserted into a vein of the antecubital region of one of the subjects' arms. A syringe containing the PC (phosphatidylcholine) composition in about 5 to about 10 cc volume was connected to the catheter by a flexible tube. A volume of blood equal to the total volume of the PC composition was drawn into the syringe and the syringe was gently agitated to mix the blood and PC composition. The blood/PC composition mixture was then infused (or “pushed”) as a lipid exchange into the subject over a period of two to three minutes.
A butterfly catheter with a 23-gauge needle was inserted into a vein of the antecubital region of one of the subjects' arms. The PC composition was infused first followed by a pre-prepared syringe containing about 2 mg (0.2 cc) to about 5 mg (0.5 cc) of Leucovorin over the period of 2-3 minutes.
A butterfly catheter with a 23-gauge needle was inserted into a vein of the antecubital region of one of the subjects' arms. The PC and Leucovorin compositions were infused first followed by a pre-prepared syringe containing about 1.5 to 6 cc of glutathione generally pre-mixed with an equal portion of sterile water (not saline). The composition containing glutathione was followed the IV PC with a pre-prepared syringe of glutathione using the same needle. This procedure avoids re-sticking the patient by infusing first the PC, then the Leucovorin and then the glutathione using the same butterfly catheter with a flexible tube infused (or “pushed”) into the subject over a period of two to five minutes.

[2] = L-Glutathione capsules, stomach acid; cited from earlier work
[3] = tested on: mouse model of Bulbar ALS; details: oral administration; cited from earlier work
[4] = IV bolus doses of 7 grams, 14 grams and 21 grams; cited from earlier work
[5] = cited from earlier work

**Q.** With `O=C(O)[C@@H](S)[C@@H](S)C(=O)O` [DMSA, meso-2,3-dimercaptosuccinic acid] as the compound, how does the adverse outcome ([1]; Case Study Seven, 13 months of oral dosing by another physician) read?
**A.** Its adverse outcome is “increased left side weakness”.

**Q.** For `N[C@@H](CCC(=O)N[C@@H](CS)C(=O)NCC(=O)O)C(=O)O` [Glutathione, N—(N-L-gamma-glutamyl-L-cysteinyl) glycine], which “stability when taken orally” value [2] is on record?
**A.** The value was “very unstable and is destroyed by the stomach acid before it can be absorbed”.

**Q.** Which results are given for `CCCC(=O)[O-].[Na+]` [sodium butyrate]?
**A.** acetylation of nuclear histone in neural tissues [3]: increased acetylation of nuclear histone in neural tissues; neurological phenotypes [3]: successfully ameliorated neurological phenotypes

**Q.** What does the source list for Phosphatidylcholine?
**A.** side effects [4]: no side effects were observed; clinical response ([1]; Case Study Five, 2 grams then 3 grams on consecutive weeks dripped over 3 hours): increased awareness/communication; clinical response ([1]; Case Study Seven, IV 500 mg two to three times weekly, after 6 weeks): dramatic improvement in response to others and the world around them; clinical response ([1]; Case Study Seven, IV lipid exchange 250 mg followed by 0.3 cc leucovorin and 1200 mg GSH, once weekly): positive responsive; clinical response ([1]; Case Study Seven, bolus dosing): increased language and awareness; clinical response ([1]; Case Study Six, IV 500 mg twice weekly, after 6 weeks): improvement in fatigue, stable mood, return of focus, improvement in memory, clearance of orange color on palms/soles, less headaches, improved learning; clinical response ([1]; Case Study Six, IV lipid exchange 250 mg once weekly with supplementation and diet): responsive; clinical response ([1]; Case Study Six, bolus 1.5 grams in D5W dripped over 2 hours followed by glutathione): improved cognition, increased circulation, improved eye contact and more demonstrative, loving behavior; tolerability ([1]; Case Study Six, bolus 3 grams dripped over 4 hours): well tolerated; oral absorption ([5]; taken orally with meals): up to 90 % per 24 hrs; time over which blood levels peak ([5]; taken orally): 8 to 12 h
